Reference: patent EP0400799A1, “Phenylpyrimidone derivatives” (SMITH KLINE & FRENCH LABORATORIES LIMITED, priority 1989, dated 1990)

What was measured:
hindquarter blood flow = assay: Vasodilatation in vivo, perfused hindquarter blood flow; settings: Rattus norvegicus, iv; dose producing a 50% increase in hindquarter blood flow; anaesthetised male Wistar rats; bolus i.v.; read-out: EDHQ₅₀
Method: Male Wistar rats (300 g) were anaesthetised with a sodium 5-ethyl-5-(1-methylpropyl)-2-thiobarbiturate/sodium pentobarbitone mixture i.p. (62.5 and 22.5 mg/kg respectively). The trachea was cannulated and the rats breathed spontaneously air enriched with O₂ (5 ml/min). Blood pressure was recorded from a carotid artery and a jugular vein was cannulated for the administration of compounds. The temperature of the animal was maintained at 37°C by the use of an electric blanket. […] The perfusion circuit was primed with 5% bovine serum albumin dissolved in 0.9% sodium chloride solution, pH adjusted to 7.4. Initially the pump rate was set between 10 and 15 ml/min to match the hind quarter perfusion pressure to that of the systemic circulation. Once set, the pressure remained unaltered for the rest of the experiment. A change in the speed of the pump (equivalent to hindquarter blood flow) was used to assess the changes in hindquarter vascular resistance.
All compounds were administered as a bolus i.v. and from the dose response curves the dose required to produce a 50% increase in hindquarter blood flow (EDHQ₅₀) was determined in µmoles/kg.

[1] = test system: histamine bronchoconstriction; assay: Bronchodilatation in vivo, histamine-induced bronchoconstriction (airway resistance, Konzett-Rossler); parameters: species or system guinea-pigs of the Dunkin Hartley strain; settings: Cavia porcellus, iv; dose reducing histamine bronchoconstriction by 50%; anaesthetised male guinea-pigs; i.v. bolus one minute before histamine challenge; read-out: BD₅₀
Method: A. Male guinea-pigs of the Dunkin Hartley strain (500 - 600 g) were anaesthetised with Sagatal (pentobarbital sodium) (60 mg/kg i.p.). Airway resistance was measured using a modification of the classical Konzett-Rossler technique (J. Pharm. Methods, 13, 309-315, 1985). A dose of histamine which gave approximately 150% increase in airway resistance was selected for i.v. administration. Bolus doses of the compound under test were administered (i.v.) one minute before the histamine challenge and the subsequent peak inhibition of bronchoconstriction recorded.
The dose of compound required to reduce the histamine bronchoconstriction by 50% is given as the BD₅₀.

[2] = test system: U46619-induced bronchoconstriction; assay: Bronchodilatation in vivo, U46619-induced bronchoconstriction (airway resistance, Konzett-Rossler); parameters: species or system guinea-pigs of the Dunkin Hartley strain; settings: Cavia porcellus, iv; dose reducing U46619-induced bronchoconstriction by 50%; anaesthetised male guinea-pigs; i.v. bolus; U46619 infused i.v. 2.5 nmol/min; read-out: BD₅₀
Method: B. Male guinea-pigs of the Dunkin Hartley strain (500 - 600g) were anaesthetised with Sagatal (pentobarbital sodium) (60 mg/kg). Airway resistance was measured using a modification of the classical Konzett-Rossler technique (J. Pharm. Methods, 13, 309-315, 1985). U46619 (9,11-methanoepoxy-PGH₂) was infused i.v. at a rate of 2.5 nmol/min, this produced a steady state of bronchoconstriction (approximately 120% increase from basal airway resistance). The compound under test was administered by i.v. bolus injection, and the subsequent peak inhibition of bronchoconstriction recorded.
The dose of compound required to reduce the U46619-induced bronchoconstriction by 50% is given as the BD₅₀.

SMILES	ED50 (hindquarter blood flow) [µmol/kg]	ED50 [1] [µmol/kg]	ED50 [2] [µmol/kg]
CCCOc1ccccc1-c1ncc(N)c(=O)[nH]1 [Ex 3, 5-Amino-2-(2-propoxyphenyl)pyrimidin-4(3H)-one]	19	8.34	
CCCOc1ccccc1-c1ncc(NC(C)=O)c(=O)[nH]1 [Ex 4, 5-Acetamido-2-(2-propoxyphenyl)pyrimidin-4(3H)-one]	15.8	8.4	3.8
CCCOc1ccccc1-c1ncc(C(N)=O)c(=O)[nH]1 [y, 1,6-dihydro-6-oxo-2-(2-propoxyphenyl)pyrimidine-5-carboxamide, reference compound]	23	5.6	
CCCOc1ccccc1-c1nccc(=O)[nH]1 [Ex 5, 2-(2-Propoxyphenyl)pyrimidin-4(3H)-one]	22		3.2
